Measured values published in patent US7923004B2 (priority 2006, dated 2011).

Assays:
Type in all cases: cell-based
[1] = tested on: HCV genotype 1b replicon (Huh-Luc-Neo cells); experiment: HCV Replicon Luciferase Assay; settings: Hepatitis C virus, 72 h, read-out: HCV-1b Replicon Inhibition*, Luciferase (EC50)
[2] = tested on: HCV genotype 1b replicon (Huh-Luc-Neo cells); experiment: HCV Replicon RNA (Taqman) Assay, genotype 1b; settings: Hepatitis C virus, 72 h, read-out: HCV-1b Replicon Inhibition*, Taqman (EC50)
[3] = Cell Titer-Glo Cell Viability Assay, genotype 1b cells; settings: human, Huh-Luc-Neo (HCV genotype 1b replicon) cells, HCV genotype 1b assays, read-out: Cytotoxicity* (CC50)
Protocol: Cell Seeding and Compound Treatment: Huh-Luc-Neo (Genotype 1b) or En5-3/Htat2ANeo (Genotype 1a) cells are seeded at 5000-7000/well in an opaque-walled 96 plate with Growth Medium (DMEM phenol red free+PS+2 mM glutamine; 100 ul/well). The compounds to be tested for inhibition of cell viability are added to the experimental wells so as to generate a dose response curve (8-9 concentrations, 10 μl/well at 10× assay concentration) and the cells are then incubated (5% CO2, 37° C.) for 72 h.
Reagent Preparation and Assay: After completion of the incubation period the cell viability measurements are made using the Cell Titre Glo Assay (Promega) according to the manufacturer's recommended protocol. Briefly, the CellTiter-Glo Buffer is thawed and equilibrated to room temperature prior to use. The lyophilized CellTiter-Glo Substrate is also equilibrated to room temperature prior to use. 10 ml of CellTiter-Glo Buffer is then transferred to 1 vial of CellTiter-Glo Substrate and mixed gently with a Vortex. 100 μl of CellTiter-Glo Assay reagent (CellTiter-Glo Buffer+CellTiter-Glo Substrate Mixture) is added to each well. The well contents are mixed for 5 min. on an orbital shaker at room temperature to induce cell lysis and the luminescence is then measured using a luminometer.

[4] = Huh-Luc-Neo cells, genotype 1b, HCV RNA
[5] = GETYPE1B, Huh-Luc-Neo cells, genotype 1b
[6] = GETYPE1B, Huh-Luc-Neo cells, genotype 1b, HCV RNA

| SMILES | EC50 ([1]; Huh-Luc-Neo cells, genotype 1b) | EC50 [2, 4] | CC50 at 72 h [3] | EC50 [1, 5] | EC50 [2, 6] | EC50 [1] | EC50 [2] |
| --- | --- | --- | --- | --- | --- | --- | --- |
| Cc1ccc(O)c(-c2nn(C)cc2C#Cc2ccc(NC(=O)[C@H]3CCCCN3C(=O)[C@H](Cc3ccccc3)NC(=O)OC(C)(C)C)cc2)c1 [Compound 2] | < 1 µM | < 1 µM | > 100 µM |  |  |  |  |
| CCOC(=O)c1ccc(O)c(-c2nn(C)cc2C#Cc2ccc(NC(=O)[C@@H]3CCCCN3C(=O)[C@H](NC(=O)OC(C)(C)C)c3ccsc3)cc2)c1 [Compound 33] | < 1 µM | < 1 µM | > 100 µM |  |  |  |  |
| Cc1ccc(O)c(-c2nn(C)cc2C#Cc2ccc(NC(=O)[C@@H]3CS(=O)(=O)CCN3C(=O)[C@H](NC(=O)OC(C)(C)C)c3ccccc3)cc2)c1 [Compound 45] | < 1 µM | < 1 µM | > 100 µM |  |  |  |  |
| Cc1ccc(O)c(-c2nn(C)cc2C#Cc2ccc(NC(=O)C3CCCCN3S(=O)(=O)c3cccs3)cc2)c1 (stereo not drawn) [Compound 12] | < 1 µM | < 1 µM | > 100 µM |  |  |  |  |
| Cn1cc(C#Cc2ccc(NC(=O)[C@@H]3COCCN3C(=O)[C@H](NC(=O)OC(C)(C)C)c3ccccc3)cc2)c(-c2cc(Cl)ccc2O)n1 [Example 51] | < 1 µM | < 1 µM | 10 to 100 µM |  |  |  |  |
| CC(C)(C)OC(=O)N[C@@H](C(=O)N1CCCC[C@H]1C(=O)Nc1ccc(C#Cc2c[nH]nc2-c2cc(Cl)ccc2O)cc1)c1ccccc1 [Compound 38] | < 1 µM | < 1 µM | > 100 µM |  |  |  |  |
| CCOC(=O)c1ccc(O)c(-c2nn(C)cc2C#Cc2ccc(NC(=O)[C@@H]3CCCCN3C(=O)[C@H](NC(=O)OC(C)(C)C)c3ccccc3)cc2)c1 [Compound 30] | < 1 µM | < 1 µM | > 100 µM |  |  |  |  |
| Cn1cc(C#Cc2ccc(NC(=O)[C@@H]3CCCCN3C(=O)[C@@H](NC(=O)OC(C)(C)C)c3ccsc3)cc2)c(-c2cc(Br)ccc2O)n1 [Example 49] | < 1 µM | < 1 µM | 10 to 100 µM |  |  |  |  |
| Cc1ccc(O)c(-c2nn(C)cc2C#Cc2ccc(NC(=O)C3CCCCN3C(=O)[C@H](Cc3ccc(F)cc3)NC(=O)OC(C)(C)C)cc2)c1 (stereo partly drawn) [Compound 5] | < 1 µM | < 1 µM | > 100 µM |  |  |  |  |
| Cc1ccc(O)c(-c2nn(C)cc2C#Cc2ccc(NC(=O)C3CCCCN3C(=O)[C@H](Cc3ccc(Cl)cc3)NC(=O)OC(C)(C)C)cc2)c1 (stereo partly drawn) [Compound 23] | < 1 µM | < 1 µM | 10 to 100 µM |  |  |  |  |
| Cc1ccc(O)c(-c2nn(C)cc2C#Cc2ccc(NC(=O)C3CCCCN3C(=O)[C@]3(NC(=O)OC(C)(C)C)C[C@@H]3c3ccccc3)cc2)c1 (stereo partly drawn) [Example 21] | < 1 µM | < 1 µM | 10 to 100 µM |  |  |  |  |
| Cc1ccc(O)c(-c2nn(C)cc2C#Cc2ccc(NC(=O)C3CCCCN3C(=O)C(NC(=O)OC(C)(C)C)c3ccccc3)cc2)c1 (stereo not drawn) [Compound 1] | 1 to 10 µM | < 1 µM | > 100 µM |  |  |  |  |
| Cc1ccc(O)c(-c2nn(C)cc2C#Cc2ccc(NC(=O)C3CCCCN3C(=O)[C@H](Cc3cccnc3)NC(=O)OC(C)(C)C)cc2)c1 (stereo partly drawn) [Compound 3] | < 1 µM | < 1 µM | > 100 µM |  |  |  |  |
| CN(C(=O)OC(C)(C)C)[C@@H](Cc1ccccc1)C(=O)N1CCCC[C@@H]1C(=O)Nc1ccc(C#Cc2cn(CCO)nc2-c2cc(Cl)ccc2O)cc1 [Compound 42] | < 1 µM | < 1 µM | 10 to 100 µM |  |  |  |  |
| CC(=O)Oc1ccc(C)cc1-c1nn(C)cc1C#Cc1ccc(NC(=O)C2CCCCN2S(=O)(=O)c2cccs2)cc1 (stereo not drawn) [Compound 63] | 1 to 10 µM | 1 to 10 µM | > 100 µM |  |  |  |  |
| Cc1ccc(O)c(-c2nn(C)cc2C#Cc2ccc(NC(=O)[C@@H]3CN(C(=O)C(F)(F)F)CCN3C(=O)[C@H](NC(=O)OC(C)(C)C)c3ccccc3)cc2)c1 [Compound 41] | < 1 µM | < 1 µM | > 100 µM |  |  |  |  |

| SMILES | EC50 ([1]; Huh-Luc-Neo cells, genotype 1b) | EC50 [2, 4] | CC50 at 72 h [3] | EC50 [1, 5] | EC50 [2, 6] | EC50 [1] | EC50 [2] |
| --- | --- | --- | --- | --- | --- | --- | --- |
| Cc1ccc(O)c(-c2nn(C)cc2C#Cc2ccc(NC(=O)C3CCCCN3C(=O)[C@H](Cc3ccccc3)NC(=O)CC(C)(C)C)cc2)c1 (stereo partly drawn) [Compound 8] | < 1 µM | < 1 µM | 10 to 100 µM |  |  |  |  |
| Cn1cc(C#Cc2ccc(NC(=O)[C@@H]3COCCN3C(=O)[C@H](NC(=O)OC(C)(C)C)c3ccsc3)cc2)c(-c2cc(C#N)ccc2O)n1 [Compound 34] | < 1 µM | < 1 µM | > 100 µM |  |  |  |  |
| Cc1ccc(O)c(-c2nn(C)cc2C#Cc2ccc(NC(=O)C3CCCCN3C(=O)[C@H](Cc3ccc(Br)cc3)NC(=O)OC(C)(C)C)cc2)c1 (stereo partly drawn) [Compound 26] | < 1 µM | < 1 µM | 10 to 100 µM |  |  |  |  |
| Cc1ccc(O)c(-c2nn(C)cc2C#Cc2ccc(NC(=O)C3CCCCN3C(=O)[C@H](Cc3ccccc3)NC(=O)C3CCCCC3)cc2)c1 (stereo partly drawn) [Compound 10] | < 1 µM | < 1 µM | 10 to 100 µM |  |  |  |  |
| Cc1ccc(O)c(-c2nn(C)cc2C#Cc2ccc(NC(=O)[C@@H]3CNCCN3C(=O)[C@H](NC(=O)OC(C)(C)C)c3ccccc3)cc2)c1 [Compound 27A] |  |  | 10 to 100 µM | < 1 µM | < 1 µM |  |  |
| Cc1ccc(O)c(-c2nn(C)cc2C#Cc2ccc(NC(=O)C3CCCCN3C(=O)[C@H](Cc3ccccc3)NC(=O)OC(C)(C)C)cc2)c1 (stereo partly drawn) [Compound 14] | < 1 µM | < 1 µM | > 100 µM |  |  |  |  |
| Cc1ccc(O)c(-c2nn(C)cc2C#Cc2ccc(NC(=O)[C@@H]3CCCCN3C(=O)[C@@H](NC(=O)OC(C)(C)C)c3ccccc3)cc2)c1 [Example 17] | < 1 µM | < 1 µM | > 100 µM |  |  |  |  |
| COc1ccccc1[C@@H](NC(=O)OC(C)(C)C)C(=O)N1CCOC[C@H]1C(=O)Nc1ccc(C#Cc2cn(C)nc2-c2cc(C#N)ccc2O)cc1 [Compound 22A] |  |  | > 100 µM | < 1 µM | < 1 µM |  |  |
| Cn1cc(C#Cc2ccc(NC(=O)[C@H]3CCCCN3C(=O)C(NC(=O)OC(C)(C)C)c3ccccc3)cc2)c(-c2cc(Br)ccc2O)n1 (stereo partly drawn) [Example 20] | < 1 µM | < 1 µM | 10 to 100 µM |  |  |  |  |
| Cc1ccc(O)c(-c2nn(C)cc2C#Cc2ccc(NC(=O)[C@H]3CS(=O)(=O)CCN3C(=O)[C@H](NC(=O)OC(C)(C)C)c3ccccc3)cc2)c1 [Compound 46 (Table 1)] | < 1 µM | < 1 µM | > 100 µM |  |  |  |  |
| Cc1ccc(O)c(-c2nn(C)cc2C#Cc2ccc(NC(=O)C3CCCCN3C(=O)[C@H](Cc3ccc(Cl)cc3Cl)NC(=O)OC(C)(C)C)cc2)c1 (stereo partly drawn) [Compound 6] | < 1 µM | < 1 µM | > 100 µM |  |  |  |  |
| Cc1ccc(OCC(N)=O)c(-c2nn(C)cc2C#Cc2ccc(NC(=O)C3CCCCN3C(=O)[C@H](Cc3ccccc3)NC(=O)OC(C)(C)C)cc2)c1 (stereo partly drawn) [Compound 58] |  |  | 10 to 100 µM |  |  | 1 to 10 µM | > 100 µM |
| Cc1ccc(OS(=O)(=O)C(F)(F)F)c(-c2nn(C)cc2C#Cc2ccc(NC(=O)C3CCCCN3C(=O)[C@H](Cc3ccccc3)NC(=O)OC(C)(C)C)cc2)c1 (stereo partly drawn) [Compound 11] | < 1 µM | < 1 µM | > 100 µM |  |  |  |  |
| Cc1ccc(O)c(-c2nn(C)cc2C#Cc2ccc(NC(=O)C3CCCCN3C(=O)[C@H](Cc3ccccc3)N(C)C(=O)OC(C)(C)C)cc2)c1 (stereo partly drawn) [Example 19] | < 1 µM | < 1 µM | 10 to 100 µM |  |  |  |  |
| CC(C)(C)OC(=O)N[C@@H](C(=O)N1CCCC[C@H]1C(=O)Nc1ccc(C#Cc2cn(CCO)nc2-c2cc(Cl)ccc2O)cc1)c1ccccc1 [Compound 39] | < 1 µM | < 1 µM | 10 to 100 µM |  |  |  |  |
